According to the NIST ThermoML archive (doi:10.1016/j.jct.2019.02.020):

Experiment: mn = molality of the nth substance listed, in mol/kg
Conditions: 100 kPa, Liquid; for viscosity: Falling or rolling sphere viscometry; for mass density: Vibrating tube method

O=S(=O)([O-])[O-].[O]=[V+2] [oxovanadium(IV) sulfate] + O
Conditions | mass density, 293.15 K [kg/m3] | mass density, 303.15 K [kg/m3] | viscosity, 283.15 K [mPa·s] | viscosity, 288.15 K [mPa·s] | viscosity, 293.15 K [mPa·s] | viscosity, 298.15 K [mPa·s] | viscosity, 303.15 K [mPa·s] | viscosity, 308.15 K [mPa·s] | viscosity, 313.15 K [mPa·s] | viscosity, 318.15 K [mPa·s]
m1 = 0.2501 | 1034.67 | 1031.66 | 1.551 | 1.347 | 1.183 | 1.049 | 0.9378 | 0.8442 | 0.764 | 0.6958
m1 = 0.5 | 1069.8 | 1066.39 | 1.861 | 1.61 | 1.409 | 1.244 | 1.108 | 0.9929 | 0.897 | 0.8143
m1 = 0.7507 | 1104.11 | 1100.34 | 2.242 | 1.932 | 1.682 | 1.479 | 1.311 | 1.171 | 1.053 | 0.9528
m1 = 0.9964 | 1136.2 | 1132.1 | 2.697 | 2.312 | 2.005 | 1.755 | 1.55 | 1.379 | 1.235 | 1.113
m1 = 1.25 | 1169.5 | 1165.09 | 3.308 | 2.816 | 2.429 | 2.115 | 1.859 | 1.646 | 1.468 | 1.319
m1 = 1.5 | 1201.04 | 1196.42 | 4.052 | 3.427 | 2.936 | 2.543 | 2.223 | 1.959 | 1.74 | 1.556
m1 = 1.75 | 1231.58 | 1226.74 | 4.966 | 4.171 | 3.548 | 3.052 | 2.66 | 2.334 | 2.064 | 1.838
m1 = 2 | 1261.16 | 1256.15 | 6.108 | 5.092 | 4.304 | 3.679 | 3.18 | 2.783 | 2.445 | 2.168
m1 = 2.249 | 1289.97 | 1284.81 | 7.543 | 6.238 | 5.238 | 4.448 | 3.824 | 3.32 | 2.916 | 2.575
m1 = 2.499 | 1317.94 | 1312.66 | 9.273 | 7.615 | 6.348 | 5.359 | 4.58 | 3.953 | 3.446 | 3.029
m1 = 2.75 | 1345.06 | 1339.67 | 11.55 | 9.405 | 7.784 | 6.524 | 5.544 | 4.758 | 4.126 | 3.608
